Results: patent publication US12427148B2, “Cancer treatment targeted to tumor adaptive responses to protein synthesis stress” (priority 2018, dated 2025)

Tests used:
[1] = system: Pten^fl/fl organoid cultures; assay: 35S methionine incorporation (newly synthesized proteins) and ATF4 expression in organoid cultures; type: cell-based, mouse; details: ISRIB treatment
Procedure: (§1) To evaluate the effects of these key oncogenes on global protein synthesis, newly synthesized proteins were assessed by incorporation of ^35S-labeled methionine in organoid cultures. Primary mouse three-dimensional organoid cultures were established to recapitulate the cellular environment of the murine prostate gland ex vivo. Organoids were derived from dissociated mouse prostate tissue containing a mixed population of luminal and basal cell types to mimic the histology observed in vivo. Western blot analysis confirmed that Myc^Tg expression and PTEN loss were evident and associated with increased GFP expression and AKT phosphorylation. […] On the contrary, it was observed that an unanticipated but significant dampening in global protein synthesis occurred in Ptenfl/fl;MycTg mice (P=0.01), despite the fact that these mice developed more aggressive PCa (FIG. 1D).
(§2) A general UPR response may promote adaptation to proteotoxic and ER stress, whereas the activation of P-eIF2α could place a direct brake on the overwhelming burden of protein synthesis that occurs during more aggressive tumorigenesis. To test this hypothesis, the organoid cultures were employed, which recapitulate the in vivo phenotype. […]

[2] = system: Pten^fl/fl;Myc^Tg organoid cultures; assay: 35S methionine incorporation (newly synthesized proteins) in organoid cultures; type: cell-based, mouse; details: Pten^fl/fl;Myc^Tg cells, ISRIB treatment
Procedure: as §1, §2

[3] = system: Pten^fl/fl;Myc^Tg mice prostate tumors; assay: Preclinical trial in mice with developed prostate tumors, MRI prostate volume; type: in vivo
Procedure: (§3) To evaluate the necessity of P-eIF2α for promoting tumor growth or maintenance in vivo, a preclinical trial was conducted. Mice with developed tumors were imaged by magnetic resonance imaging (MRI) to confirm a measurable baseline of prostate volume per mouse and then grouped into cohorts for either vehicle or ISRIB treatment daily over the course of 6 weeks.

[4] = system: Pten^fl/fl mice prostate tumors; assay: as above; type: in vivo, mouse
Procedure: as §3

[5] = system: RWPE-1 shPTEN;MYC^OE cells; assay: Apoptosis (annexin V-positive cells by flow cytometry) in engineered human prostate epithelial cells; type: cell-based; details: 500 nM ISRIB for 9 hours, shPTEN;MYC^OE cells relative to control samples
Procedure: FIGS. 4A and 4B. FIG. 4A depicts quantification of annexin V-positive cells analyzed by flow cytometry relative to control cells after treatment with DMSO or 500 nM ISRIB for 9 hours (n=3, mean±SEM) *P<0.05, t test. FIG. 4B depicts Cox proportional hazards regression results in a Forest plot of hazard ratios and 95% CI for factors associated with risk of clinical progression after surgery. Independent factors are tumor with PTEN loss/low P-eIF2α or PTEN loss/high P-eIF2α versus a reference group with normal PTEN expression; age in years; PSA in nanograms per milliliter; Gleason score>7 versus 6; and pathological stage T3-T4 versus T2 at the time of prostatectomy.
To extend these observations directly to human disease, human cell lines were created to mimic the genetic mouse models. Human RWPE-1 epithelial cells were created to stably knock down PTEN (shPTEN) with or without MYC overexpression. The combination of PTEN loss with increased MYC expression activated PERK signaling and P-eIF2α, showing that the adaptive response that we had observed in mice is also triggered in human prostate cells.

mPCa-PDX tumor = assay: Preclinical trial in patient-derived xenograft from lymph node metastasis; type: in vivo, mouse
Procedure: (§4) FIGS. 5A, 5B, 5C, 5D, 5E, 5F, and 5G. FIGS. 5A, 5B, and 5C depict quantification of protein expression as relative mean IF intensity normalized to adjacent stromal tissue for: FIG. 5A: benign, FIG. 5B PCa, and mPCa cell types. FIG. 5D and FIG. 5E depict Kaplan-Meier tumor survival curves for mice bearing pPCa (5D) or mPCa (5E) tumors treated with ISRIB (10 mg/kg) or vehicle (n=8, per cohort; **P=0.01, log-rank test). […] FIG. 5F depicts quantification of PDX tumors treated with vehicle or ISRIB (10 mg/kg); (n=3, ***P<0.001, t test). FIG. 5G depicts quantification of newly synthesized proteins in vivo, assessed by incorporation of OP-Puro within PDX treated with ISRIB (10 mg/kg) or vehicle (n=3 to 4 per arm, mean±SEM; *P<0.05, t test). n.s., not significant. MFI, mean fluorescence intensity.
(§5) Next, it was sought to functionally evaluate whether the UPR pathway could be targeted, specifically through P-eIF2α, in advanced human PCa. Although it is historically difficult to generate human prostate patient-derived xenograft (PDX) models, this was successfully achieved with similar characteristics to the Pten^fl/fl;Myc^Tg mice to assess the effects of ISRIB on cancer growth and mortality. In particular, two PDX models were generated: one derived from a primary tumor, herein referred to as pPCa, and one derived from a lymph node metastasis in the left internal iliac chain from the same patient, herein referred to as mPCa. […] A significant increase in P-eIF2α was observed only in the mPCa (P<0.01).
(§6) To test the therapeutic efficacy of ISRIB in human PCa, a preclinical trial was performed on the stably passaged PDX model.

pPCa-PDX tumor = assay: Preclinical trial in patient-derived xenograft from primary tumor; type: in vivo, mouse
Procedure: as §4, §5, §6

mPCa PDX = assay: Newly synthesized proteins in vivo by OP-Puro incorporation in PDX; parameters: species or system mouse; details: ISRIB 10 mg/kg
Procedure: as §4
(§7) Next, it was determined whether a metastatic PCa tumor, harboring high MYC and loss of PTEN activity in a complex genetic background of human PCa, relies on eIF2α phosphorylation as an adaptive response to restrain global protein synthesis. Therefore, newly synthesized proteins in vivo were assessed by measuring the incorporation of O-propargyl-puromycin (OP-Puro) within the primary and metastatic tumor-derived PDXs, which have low or high P-eIF2α, respectively. […] Within the area of intratumor ATF4 loss, apoptosis and decreased proliferation assessed by TUNEL and Ki67 staining of mPCa PDX was observed.

pPCa tumors = assay: as above; parameters: species or system mouse; details: ISRIB 10 mg/kg
Procedure: as §4, §7

mCRPC PDX = assay: Metastatic castration-resistant PCa PDX, survival and PSMA PET/CT imaging; type: in vivo, mouse
Text: In hormone-sensitive metastatic PCa, androgen deprivation therapy (ADT) remains the mainstay treatment; however, these tumors inevitably develop resistance to ADT and progress into the lethal form of metastatic castration-resistant PCa (mCRPC). Characterization of the hormone-sensitive metastatic disease has not been predictive of outcomes in the clinical setting of lethal mCRPC. To directly study the contribution of P-eIF2α to metastasis, an additional PDX (herein mCRPC PDX) was generated derived from a patient with mCRPC despite prolonged treatment with complete androgen blockage using leuprolide (ADT) and antiandrogen therapy (enzalutamide). Three weeks after implantation of the mCRPC tumor under the mouse renal capsule, tumor dissemination to the liver, distant kidney, lymph nodes, and spleen was observed.
To examine the role of P-eIF2α from the early stages of metastatic growth to late stages of dissemination, a prostate-specific membrane antigen [^68Ga-PSMA-11 PET/computed tomography (CT)] scan was used to trace the progression of very small metastases from early to late stages of dissemination, which were not visible by conventional imaging modalities such as ^18F-DG PET/CT. Prostate-specific membrane antigen (PSMA) is highly expressed on the surface of PCa cells and allows sensitive staging to evaluate therapy response in the clinical setting. […]

PERK = PERK inhibitor as described; cited from earlier work
[6] = pPCa-PDX, low P-eIF2α, ISRIB treatment

## O=C(COc1ccc(Cl)cc1)NC1CCC(NC(=O)COc2ccc(Cl)cc2)CC1 (stereo not drawn) [ISRIB]
[1]
  ATF4 expression: decrease
  protein synthesis (newly synthesized proteins): not altered
[2]
  newly synthesized proteins: marked increase
[3]; ISRIB-treated Pten^fl/fl;Myc^Tg mice, by 6 weeks
  tumor size by MRI: no progression in tumor size
[3]; Pten^fl/fl;Myc^Tg mice, daily ISRIB treatment
  toxicity: no signs of toxicity
[3]; Pten^fl/fl;Myc^Tg mice, daily ISRIB, 3 weeks
  tumor size by MRI: tumor regression within 3 weeks
[3]; after 3 weeks of ISRIB treatment, regardless of prostate tumor genotype
  immune cell infiltration (CD45): no significant changes
[4]; by 6 weeks
  increase in growth over individual baseline measurements: ~40%
[4]; vehicle or daily ISRIB, 3 weeks
  tumor size by MRI: continued tumor growth
[5]
  apoptosis (annexin V-positive cells): marked increase in apoptosis
mPCa-PDX tumor; mPCa-PDX, after 9 days of ISRIB treatment
  cell death: TUNEL staining and cleaved caspase 3 expression: increased
mPCa-PDX tumor; mPCa-PDX, after 9 days of ISRIB treatment, P<0.01
  tumor size: significant tumor regression
mPCa-PDX tumor; mice bearing metastatic tumor with high P-eIF2α, ISRIB 10 mg/kg, P<0.01
  survival: significantly prolonged survival
pPCa-PDX tumor; pPCa tumor, ISRIB 10 mg/kg
  effectiveness of ISRIB treatment (survival): short-lived
pPCa-PDX tumor; [6]
  cell death: no significant cell death
  tumor size: did not show regression but stabilized with eventual tumor regrowth
mPCa PDX
  global protein synthesis (OP-Puro incorporation): marked increase
pPCa tumors
  global protein synthesis (OP-Puro incorporation): no change
mCRPC PDX; mCRPC PDX mice bearing distal metastatic lesions, P=0.01
  survival: significantly prolonged survival
mCRPC PDX; mCRPC PDX mice treated with ISRIB
  metastases at distal sites by PSMA PET/CT: substantial metastatic regression
PERK
  IC50: 5 nM
